# According to PubChem BioAssay AID274 (DTP/NCI, 2004):
# Values joined by “and” are separate entries in the source; they are usually repeats but may differ in a detail not shown here. Equal entries are not always repeated. Toxic doses and inconclusive results are not listed.
# Test system: BDF1 mice, Lewis lung carcinoma iv, survival T/C
# Assay: NCI In Vivo Anticancer Drug Screen. Data for tumor model Lewis Lung Carcinoma (intravenous) in B6D2F1 (BDF1) mice
# Conditions: endpoint: median survival time, higher = longer survival
# Protocol: The antitumor activity of compounds was measured in mice bearing transplantable tumors. Survival or tumor size were measured and the results are expressed as the measurement made in the treated group (T) divided by the measurement made in the vehicle treated control group (C). The tumor model used in this assay is Lewis Lung Carcinoma (intravenous) in B6D2F1 (BDF1) mice
# [1] = dose: 12.5 mg/kg/injection, schedule: Q01DX009 (ip), vehicle: saline with Tween-80
# [2] = dose: 25.0 mg/kg/injection, schedule: Q01DX009 (ip), vehicle: saline with Tween-80
# [3] = dose: 50.0 mg/kg/injection, schedule: Q01DX009 (ip), vehicle: saline with Tween-80
# [4] = dose: 100.0 mg/kg/injection, schedule: Q01DX009 (ip), vehicle: saline with Tween-80
# [5] = dose: 200.0 mg/kg/injection, schedule: Q01DX009 (ip), vehicle: saline with Tween-80
# [6] = dose: 25.0 mg/kg/injection, schedule: Q01DX009 (ip), vehicle: saline
# [7] = dose: 50.0 mg/kg/injection, schedule: Q01DX009 (ip), vehicle: saline
# [8] = dose: 100.0 mg/kg/injection, schedule: Q01DX009 (ip), vehicle: saline
# [9] = dose: 6.25 mg/kg/injection, schedule: Q01DX009 (ip), vehicle: saline
# [10] = dose: 12.5 mg/kg/injection, schedule: Q01DX009 (ip), vehicle: saline
# [11] = dose: 6.25 mg/kg/injection, schedule: Q01DX009 (ip), vehicle: saline with Tween-80
# [12] = dose: 25.0 mg/kg/injection, schedule: Q01DX009 (ip), vehicle: water
# [13] = dose: 50.0 mg/kg/injection, schedule: Q01DX009 (ip), vehicle: water
# [14] = dose: 100.0 mg/kg/injection, schedule: Q01DX009 (ip), vehicle: water
smiles,measurement,setting,value
O=C(O)CC(=O)O.[NH-]C1CCCCC1[NH-].[Pt+2] (stereo unspecified),T/C,"dose: 12.5 mg/kg/injection, schedule: Q01DX009 (ip), vehicle: dextrose",117 % of control
same,T/C,"dose: 25.0 mg/kg/injection, schedule: Q01DX009 (ip), vehicle: dextrose",88 % of control
Cc1ccc2c(c1)C(=O)N(CC[P+](c1ccccc1)(c1ccccc1)c1ccccc1)C2=O,T/C,"dose: 0.78 mg/kg/injection, schedule: Q09DX009 (ip), vehicle: water",98 % of control
same,T/C,"dose: 1.56 mg/kg/injection, schedule: Q09DX009 (ip), vehicle: water",89 % of control
same,T/C,"dose: 3.12 mg/kg/injection, schedule: Q09DX009 (ip), vehicle: water",89 % of control
same,T/C,"dose: 6.25 mg/kg/injection, schedule: Q09DX009 (ip), vehicle: water",87 % of control
same,T/C,"dose: 12.5 mg/kg/injection, schedule: Q09DX009 (ip), vehicle: water",97 % of control
Cc1ccc(S(=O)(=O)NC(=O)OC23COCN2COC3)cc1,T/C,[1],98 % of control
same,T/C,[2],105 % of control
same,T/C,[3],96 % of control
same,T/C,[4],98 % of control
same,T/C,[5],98 % of control
same,T/C,"dose: 400.0 mg/kg/injection, schedule: Q01DX009 (ip), vehicle: saline with Tween-80",101 % of control
CN(C)c1ccc2c(SCC(=O)OCC(=O)[C@@]3(O)CC[C@H]4[C@@H]5CCC6=CC(=O)C=C[C@]6(C)[C@H]5C(=O)C[C@@]43C)c3ccc(N(C)C)cc3nc2c1,T/C,"dose: 25.0 mg/kg/injection, schedule: Q01DX009 (ip), vehicle: Klucel (hydroxypropylcellulose) (HPC)",104 % of control
same,T/C,"dose: 50.0 mg/kg/injection, schedule: Q01DX009 (ip), vehicle: Klucel (hydroxypropylcellulose) (HPC)",106 % of control
same,T/C,"dose: 100.0 mg/kg/injection, schedule: Q01DX009 (ip), vehicle: Klucel (hydroxypropylcellulose) (HPC)",107 % of control
same,T/C,"dose: 200.0 mg/kg/injection, schedule: Q01DX009 (ip), vehicle: Klucel (hydroxypropylcellulose) (HPC)",102 % of control
same,T/C,"dose: 400.0 mg/kg/injection, schedule: Q01DX009 (ip), vehicle: Klucel (hydroxypropylcellulose) (HPC)",107 % of control
N#CC(=C1SCS1)[N+](=O)[O-],T/C,"dose: 0.75 mg/kg/injection, schedule: Q01DX009 (ip), vehicle: saline with Tween-80",94 % of control
same,T/C,"dose: 1.5 mg/kg/injection, schedule: Q01DX009 (ip), vehicle: saline with Tween-80",102 % of control
same,T/C,"dose: 3.0 mg/kg/injection, schedule: Q01DX009 (ip), vehicle: saline with Tween-80",102 % of control
same,T/C,"dose: 6.0 mg/kg/injection, schedule: Q01DX009 (ip), vehicle: saline with Tween-80",92 % of control
CCc1cc(C(N)=S)ccn1,T/C,"dose: 72.0 mg/kg/injection, schedule: Q01DX007 (ip), vehicle: Klucel (hydroxypropylcellulose) (HPC)",96 % of control
same,T/C,"dose: 102.9 mg/kg/injection, schedule: Q01DX007 (ip), vehicle: Klucel (hydroxypropylcellulose) (HPC)",95 % of control
same,T/C,"dose: 147.0 mg/kg/injection, schedule: Q01DX007 (ip), vehicle: Klucel (hydroxypropylcellulose) (HPC)",86 % of control
same,T/C,"dose: 300.0 mg/kg/injection, schedule: Q01DX007 (ip), vehicle: Klucel (hydroxypropylcellulose) (HPC)",99 % of control
O=C1C=CC(=O)O1 (tested in a mixture with another compound),T/C,[6],101 % of control
same,T/C,[7],94 % of control
same,T/C,[8],103 % of control
same,T/C,"dose: 200.0 mg/kg/injection, schedule: Q01DX009 (ip), vehicle: saline",95 % of control
OCCOCCN1CCN(CCCN2c3ccccc3Sc3ccc(C(F)(F)F)cc32)CC1,T/C,"dose: 1.56 mg/kg/injection, schedule: Q01DX009 (ip), vehicle: saline",110 % of control
same,T/C,"dose: 3.12 mg/kg/injection, schedule: Q01DX009 (ip), vehicle: saline",105 % of control
same,T/C,[9],102 % of control
same,T/C,[10],123 % of control
COc1cc2cc3cc4cc(OC)c(OC)cc4c(C)[n+]3cc2cc1OC (tested in a mixture with another compound),T/C,[9],104 % of control
same,T/C,[10],106 % of control
same,T/C,[6],107 % of control
same,T/C,[7],111 % of control
COP12(OCCO1)SC(C(F)(F)F)=C(C(F)(F)F)S2,T/C,[11],106 % of control
same,T/C,[1],105 % of control
same,T/C,[2],98 % of control
same,T/C,[3],95 % of control
OCCNCCNc1ccnc2cc(Cl)ccc12,T/C,[10],115 % of control
same,T/C,[6],94 % of control
same,T/C,[7],107 % of control
same,T/C,[8],98 % of control
NC(=O)c1csc(C2OC(CO)C(O)C2O)n1 (stereo unspecified),T/C,[12],326 % of control
same,T/C,[13],326 % of control
same,T/C,[14],326 % of control
same,T/C,"dose: 200.0 mg/kg/injection, schedule: Q01DX009 (ip), vehicle: water",326 % of control
same,T/C,"dose: 330.0 mg/kg/injection, schedule: Q01DX009 (ip), vehicle: water",452 % of control
same,T/C,"dose: 400.0 mg/kg/injection, schedule: Q01DX009 (ip), vehicle: water",326 % of control
same,T/C,"dose: 500.0 mg/kg/injection, schedule: Q01DX009 (ip), vehicle: water",452 % of control
same,T/C,"dose: 750.0 mg/kg/injection, schedule: Q01DX009 (ip), vehicle: water",452 % of control
CC(=O)OC/C=C(C)/C=C/C=C(C)/C=C/C1=C(C)CCCC1(C)C,T/C,"dose: 6.25 mg/kg/injection, schedule: Q01DX005 (ip), vehicle: saline with Tween-80",115 % of control
same,T/C,"dose: 12.5 mg/kg/injection, schedule: Q01DX005 (ip), vehicle: saline with Tween-80",91 % of control
same,T/C,"dose: 25.0 mg/kg/injection, schedule: Q01DX005 (ip), vehicle: saline with Tween-80",97 % of control
same,T/C,"dose: 50.0 mg/kg/injection, schedule: Q01DX005 (ip), vehicle: saline with Tween-80",97 % of control
same,T/C,"dose: 100.0 mg/kg/injection, schedule: Q01DX005 (ip), vehicle: saline with Tween-80",98 % of control
same,T/C,"dose: 200.0 mg/kg/injection, schedule: Q01DX005 (ip), vehicle: saline with Tween-80",104 % of control
CN1CCN(c2ccc3nc(-c4ccc5nc(-c6ccc(O)cc6)[nH]c5c4)[nH]c3c2)CC1,T/C,"dose: 6.0 mg/kg/injection, schedule: Q01DX009 (ip), vehicle: saline",95 % of control
same,T/C,"dose: 12.0 mg/kg/injection, schedule: Q01DX009 (ip), vehicle: saline",98 % of control
same,T/C,[6],120 % of control
same,T/C,[7],102 % of control
same,T/C,[8],100 % of control
Cc1ccc2c(c1)N=C(Nc1ccccc1)N=S2(C)=O (stereo unspecified),T/C,[11],102 % of control
same,T/C,[1],102 % of control
same,T/C,[2],111 % of control
same,T/C,[3],112 % of control
same,T/C,[4],115 % of control
same,T/C,[5],116 % of control
CC(=O)NC(C=O)OCC=O (stereo unspecified),T/C,"dose: 6.25 mg/kg/injection, schedule: Q01DX009 (ip), vehicle: water",101 % of control
same,T/C,"dose: 12.5 mg/kg/injection, schedule: Q01DX009 (ip), vehicle: water",110 % of control
same,T/C,[12],102 % of control
same,T/C,[13],111 % of control
same,T/C,[14],106 % of control
CC[C@]1(O)C[C@H]2CN(CCc3c([nH]c4ccccc34)[C@@](C(=O)OC)(c3cc4c(cc3OC)N(C)[C@H]3[C@@](O)(C(=O)OC)[C@H](OC(C)=O)[C@]5(CC)C=CCN6CC[C@]43[C@@H]65)C2)C1,T/C,"dose: 0.6 mg/kg/injection, schedule: Q04DX003 (ip), vehicle: saline",106 % of control
same,T/C,"dose: 125.0 micrograms/kg/injection, schedule: Q04DX003 (ip), vehicle: saline",93 % of control (2×) and 102 % of control
same,T/C,"dose: 250.0 micrograms/kg/injection, schedule: Q04DX003 (ip), vehicle: saline",92 % of control (2×) and 95 % of control
same,T/C,"dose: 360.0 micrograms/kg/injection, schedule: Q01DX009 (ip), vehicle: saline",111 % of control
same,T/C,"dose: 500.0 micrograms/kg/injection, schedule: Q04DX003 (ip), vehicle: saline",92 % of control (2×) and 95 % of control
same,T/C,"dose: 600.0 micrograms/kg/injection, schedule: Q01DX009 (ip), vehicle: saline",92 % of control
CC(C)=CC(=O)OC1C2C(C)=CC(=O)C(O)C2(C)C2C3(O)OCC24C(CC(=O)OC14)C(C)C3O (stereo unspecified),T/C,"dose: 0.25 mg/kg/injection, schedule: Q01DX009 (ip), vehicle: distilled water + Tween-80",92 % of control
same,T/C,"dose: 0.5 mg/kg/injection, schedule: Q01DX009 (ip), vehicle: distilled water + Tween-80",90 % of control
same,T/C,"dose: 1.0 mg/kg/injection, schedule: Q01DX009 (ip), vehicle: distilled water + Tween-80",106 % of control
same,T/C,"dose: 2.0 mg/kg/injection, schedule: Q01DX009 (ip), vehicle: distilled water + Tween-80",103 % of control
